The source of these data is PubChem BioAssay (NCI).

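Growth conditions: 96-well plates. Treatment: test compound, 48 hours, 5 concentrations. Analysis: linear interpolation between bracketing concentrations; unreached endpoints set to highest concentration. GI50 is the concentration that inhibits growth by half. Definition used: TGI = concentration required for complete inhibition of growth.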 Where only a bound is given, the exact number is not on record here.

Holding throughout (assay): DTP human tumour cell line panel, 48 h
Assay [1] has as its system A498 renal.
In assay [2] the test system is MCF7 breast.
Assay [3] relates to M14 melanoma.
Assay [4] relates to UACC-257 melanoma.
Assay [5] deals with COLO 205 colon.
For assay [6], the system named is MOLT-4 leukemia.
In assay [7] the test system is HOP-62 NSCLC.
The subject of assay [8] is SF-268 CNS.
For assay [9], the system named is SR leukemia.
Assay [10] deals with SF-295 CNS.

On to `CC1(C)OC2C(=O)C=C(COCc3ccccc3)C2O1` (stereo not given), for which the TGI (usually the concentration at which net growth stops) in assay [1] is more than 100 µM; in [2], more than 100 µM; in [3] it was 92.9 µM; in [4], more than 100 µM; in assay [5], 41 µM; in assay [6], more than 100 µM. Moreover, the TGI in assay [7] was 79 µM; in [8], more than 100 µM; in assay [9], more than 100 µM; in assay [10] it was more than 100 µM.
Regarding `O=C(Nc1cccc(Nc2ncc(Br)c(NCCc3cnc[nH]3)n2)c1)N1CCCC1`, the GI50 – broadly, the concentration giving 50% growth inhibition – in [1] is 4.31 µM; in [2] it was 1.19 µM; in [3], 6.23 µM; in assay [4], 12 µM; in [5], 0.562 µM; in assay [6], 2.41 µM. Moreover, the GI50 in assay [7] is 2.35 µM; in [8], 1.41 µM; in assay [9] it was 0.527 µM; in assay [10] it was 3.72 µM. The TGI in [1] amounted to 16.6 µM; in [2], 17.7 µM; in assay [3], 21.8 µM; in assay [4] it was 37.5 µM; in [5] it was 4.06 µM; in [6] it was 24.8 µM. The total growth inhibition concentration (TGI) is 14.7 µM in assay [7], 13.9 µM in [8], 28 µM in assay [9] and 20.8 µM in assay [10].
Consider `CN(CC(N)=O)C(=O)N(CCCl)N=O`, for which the concentration for total growth inhibition (TGI) in [1], in [2], in assay [3], in assay [4], in [5] and in assay [6] was more than 100 µM each time. The TGI in [7], in assay [8], in assay [9] and in assay [10] was more than 100 µM in each case.
As to `COc1ccc(OC)c(Cn2cc3c(c2)-c2oncc2CC3)c1`, the GI50 in assay [1] was 1.73 µM; in [2], 3.02 µM; in assay [3], 2.15 µM; in assay [4], 5.11 µM; in [5] it was 3.56 µM; in [6], 3.08 µM. Further, the GI50 is 4.08 µM in assay [7], 6.22 µM in assay [8], 1.16 µM in [9] and 2.43 µM in [10]. Further, the TGI was 7.22 µM in assay [1]; more than 81.9 µM in assay [2]; 9.48 µM in assay [3]; more than 82.4 µM in assay [4]; 13.6 µM in assay [5]; more than 41.2 µM in assay [6]. Further, the total growth inhibition concentration (TGI) is more than 100 µM in assay [7], more than 100 µM in assay [8], 18.2 µM in [9] and 11.1 µM in [10].
As for `O=C1NC(=O)C(c2cccc(Cl)c2)=C1Nc1ccc(O)c(Cl)c1`, the GI50 was 11.1 µM in assay [1]; 10.4 µM in [2]; 12.1 µM in [3]; more than 25 µM in [4]; more than 20.1 µM in [5]; 15 µM in [6]. Further, the GI50 is 9.57 µM in assay [7], 11.2 µM in [8], 11.3 µM in [9] and 11.6 µM in assay [10]. Moreover, the concentration for total growth inhibition (TGI) in [1], in assay [2], in assay [3], in [4], in [5] and in [6] was more than 25 µM throughout. The TGI in assay [7] was 24.3 µM; in assay [8], more than 25 µM; in [9], more than 25 µM; in [10], more than 25 µM.
Regarding `Cc1cccc(NC(=O)c2sc3nc4c(cc3c2N)CN(Cc2ccccc2)CC4)c1C`, the GI50 in assay [1] is 0.397 µM; in assay [2] it was 0.151 µM; in [3] it was 0.149 µM; in assay [4], more than 50 µM; in [5] it was 0.274 µM; in assay [6], 0.286 µM. In addition, the GI50 in assay [7] is 0.261 µM; in [8] it was 0.387 µM; in assay [9], 0.0941 µM; in [10], 0.161 µM. Also, the total growth inhibition concentration (TGI) in [1] is more than 50 µM; in assay [2], more than 50 µM; in assay [3], 33.2 µM; in assay [4], more than 50 µM; in assay [5], more than 50 µM; in assay [6], more than 50 µM. Further, the TGI in assay [7] is more than 50 µM; in assay [8] it was more than 50 µM; in [9] it was more than 50 µM; in assay [10] it was 41.6 µM.
For the molecule `CC(C)=CCC/C(C)=C/CC/C(C)=C/CC/C=C(\C)CC/C=C(\C)CCC(=O)Nc1ccn(C2OC(CO)C(O)C2(F)F)c(=O)n1` (stereo not given), the GI50 is 0.0695 µM in assay [1]; less than 0.011 µM in [2]; 0.0519 µM in assay [3]; 0.252 µM in [4]; 0.0982 µM in assay [5]; 0.0743 µM in [6]. Besides, the concentration for 50% growth inhibition (GI50) in assay [7] was 0.0507 µM; in assay [8], 0.0853 µM; in assay [9], 0.0391 µM; in assay [10], 0.0329 µM. The total growth inhibition concentration (TGI) in [1] was 18.5 µM; in assay [2], 4.34 µM; in [3], 1.2 µM; in assay [4] it was 8.22 µM; in assay [5], 12.6 µM; in assay [6] it was 1.5 µM. The concentration for total growth inhibition (TGI) was 2.38 µM in assay [7], 3.51 µM in assay [8], 0.374 µM in assay [9] and 0.154 µM in assay [10].
For the molecule `CN(C)CC1CCCC1=O` (stereo not given), the concentration for total growth inhibition (TGI) in assay [1] was 27.3 µM; in [2], 7.03 µM; in [3] it was 3.46 µM; in assay [4] it was 3.5 µM; in [5] it was 1.84 µM; in assay [6], 0.875 µM. Besides, the total growth inhibition concentration (TGI) in assay [7] turned out to be 31.3 µM; in [8] it was 13.6 µM; in [9], 0.289 µM; in assay [10], 35.8 µM.
Regarding `O=C(Oc1cccnc1)c1ccsc1Nc1ccnc(C(F)(F)F)c1`, the GI50 is 31.1 µM in assay [1]; 3.51 µM in assay [2]; 9.39 µM in assay [3]; 10.5 µM in assay [4]; 4.89 µM in [5]; 4.39 µM in assay [6]. In addition, the GI50 was 25 µM in [7], 4.54 µM in [8], 3.74 µM in assay [9] and 24 µM in assay [10]. Besides, the TGI in [1] is 76.2 µM; in assay [2], more than 100 µM; in assay [3], more than 100 µM; in assay [4], 23.4 µM; in assay [5], 24.6 µM; in [6], 35 µM. The TGI was more than 100 µM in assay [7], more than 100 µM in assay [8], 47.1 µM in [9] and more than 100 µM in [10].
Take `CCn1c2ccccc2c2cc(/C=C(/C#N)C(N)=O)ccc21`: the 50% growth inhibitory concentration (GI50) in assay [1] is 0.188 µM; in [2] it was 0.857 µM; in assay [3] it was 13.4 µM; in assay [4] it was 4.18 µM; in assay [5] it was 4.65 µM; in assay [6], 6.66 µM. Further, the GI50 was 4.81 µM in assay [7], 19.9 µM in [8], 3.54 µM in assay [9] and 3.42 µM in assay [10]. Also, the TGI in assay [1] is 0.559 µM; in [2] it was more than 47.3 µM; in assay [3], more than 83.6 µM; in [4], 15.8 µM; in [5], more than 100 µM; in assay [6] it was more than 100 µM. Moreover, the TGI is 41.8 µM in [7], more than 100 µM in assay [8], more than 100 µM in assay [9] and 30 µM in assay [10].
Consider `CCC1(O)C(=O)OCc2c1cc1n(c2=O)Cc2cc3cc(N)ccc3nc2-1` (stereo not given), for which the TGI in assay [1] is 1.06 µM; in [2], more than 54.3 µM; in assay [3] it was 0.153 µM; in assay [4] it was 1.89 µM; in assay [5], 7.25 µM; in assay [6] it was less than 0.01 µM. Moreover, the total growth inhibition concentration (TGI) turned out to be 0.357 µM in assay [7], 0.0122 µM in assay [9] and 0.36 µM in assay [10].
As to `Cc1nc2ccccc2c(/C=C/c2ccc(Br)cc2)c1C(=O)/C=C/c1ccccc1`, the GI50 in assay [1] is 1.75 µM; in [2], 0.895 µM; in [3], 1.85 µM; in assay [4], 1.68 µM; in assay [5], 1.51 µM; in assay [6] it was 0.696 µM. Also, the GI50 was 1.76 µM in assay [7], 2.14 µM in [8] and 1.24 µM in assay [9]. Further, the TGI in assay [1] came to 3.28 µM; in assay [2] it was 2.72 µM; in assay [3] it was 4.48 µM; in [4], 3.22 µM; in [5], 3.47 µM; in assay [6], 5.06 µM. Moreover, the values for the concentration for total growth inhibition (TGI) in [7], in assay [8] and in [9] were 3.4 µM, 6.38 µM and 6.6 µM, respectively.
With `COc1ccc(C2[C@@H](Cl)C(=O)N2c2cc(OC)c(OC)c(OC)c2)cc1Cl` (stereo not given in full), the concentration for 50% growth inhibition (GI50) in assay [1] was 0.0285 µM; in [2] it was 0.0367 µM; in assay [3] it was 0.0773 µM; in [5], 0.203 µM; in [6], 0.275 µM; in [7], 0.18 µM. Moreover, the 50% growth inhibitory concentration (GI50) in assay [8] was 0.291 µM; in assay [9], 0.0551 µM; in assay [10] it was 0.0411 µM. For the same molecule, the total growth inhibition concentration (TGI) in assay [1] is 0.263 µM; in assay [2], more than 100 µM; in assay [3] it was 0.712 µM; in assay [5] it was 0.512 µM; in assay [6], 50.5 µM; in [7], more than 100 µM. The TGI was 30.6 µM in [8], more than 100 µM in assay [9] and 0.648 µM in assay [10].
